Test [1] relates to Staphylococcus aureus. The test can be described thus: Antimicrobial activity against methicillin resistant Staphylococcus aureus 3 assessed as inhibition of bacterial growth incubated for 16 to 20 hrs by CLSI protocol based Muller-Hinton broth method. The following applies: time 16-20 hrs. The test is classed as functional.
Test [2] has as its system Staphylococcus aureus. The test can be described thus: Antimicrobial activity against methicillin resistant Staphylococcus aureus 1 assessed as inhibition of bacterial growth incubated for 16 to 20 hrs by CLSI protocol based Muller-Hinton broth method. The test is classed as functional. The following applies: time 16-20 hrs.
Test [3] relates to Staphylococcus aureus. The test can be described thus: Antimicrobial activity against methicillin resistant Staphylococcus aureus 2 assessed as inhibition of bacterial growth incubated for 16 to 20 hrs by CLSI protocol based Muller-Hinton broth method. The test is classed as functional. The note with it: time 16-20 hrs.
Test [4] relates to Staphylococcus aureus. The test can be described thus: Antibacterial activity against methicillin resistant Staphylococcus aureus 42 assessed as inhibition of bacterial growth. The test is classed as functional.
Test [5] has as its system Staphylococcus aureus. The test can be described thus: Antibacterial activity against methicillin resistant Staphylococcus aureus 747 assessed as inhibition of bacterial growth. The test is classed as functional.
For test [6], the system named is Staphylococcus aureus. Kind of test: Antibacterial activity against methicillin resistant Staphylococcus aureus 128 assessed as inhibition of bacterial growth. The test is classed as functional.
The subject of test [7] is Staphylococcus aureus. The test can be described thus: Antibacterial activity against methicillin resistant Staphylococcus aureus 181 assessed as inhibition of bacterial growth. The test is classed as functional.
Test [8] concerns Staphylococcus aureus. Kind of test: microbe, parasite or virus in culture. The following applies: 032.
Description: Antibacterial activity against methicillin resistant Staphylococcus aureus 032 assessed as inhibition of bacterial growth by CLSI protocol based serial dilution method
Test [9] has as its system Staphylococcus aureus. Kind of test: Antibacterial activity against methicillin resistant Staphylococcus aureus assessed as inhibition zone by disc diffusion method. The test is classed as functional. (A growth-free zone around the sample is the usual read-out of agar diffusion tests.)
Test [10] has as its system Staphylococcus aureus. Kind of test: Antibacterial activity against methicillin resistant Staphylococcus aureus assessed as inhibition of bacterial growth by broth dilution technique. The test is classed as functional. On the technique in general: Dilution methods test growth across graded concentrations, often in twofold steps.
Test [11] deals with Staphylococcus aureus. The test can be described thus: Antibiofilm activity against methicillin resistant Staphylococcus aureus ATCC 43866 assessed as inhibition of biofilm formation incubated for 18 to 24 hrs by tissue culture plate method. The test is classed as functional. The following applies: time 18-24 hrs.
In test [12] the test system is Staphylococcus aureus. The test can be described thus: Antibacterial activity methicillin resistant Staphylococcus aureus 2658 RCMB assessed as inhibition of bacterial growth by broth microdilution method. The test is classed as functional.

SMILES strings stand for the structures. ≈ marks a conversion by molar mass, not a printed value.

As for `CCn1cc(C(=O)O)c(=O)c2cc(F)c(N3CCN(Cc4nnc(-c5ccc(F)cc5Cl)o4)CC3)cc21`, the MIC with Staphylococcus aureus [1], in the test on Staphylococcus aureus [2] and in the test with Staphylococcus aureus [3] was 1 µg/mL (≈ 1.89 µM) each time.
As to `O=c1c(F)cnc2onc(-c3cccc(F)c3F)n12`, the MIC with Staphylococcus aureus [4] was 115 µg/mL (≈ 429 µM); in the test with Staphylococcus aureus [5], at least 125 µg/mL; with Staphylococcus aureus [6] it was at least 125 µg/mL; in the test on Staphylococcus aureus [7] it was at least 125 µg/mL.
In the test with Staphylococcus aureus [8], `Cc1nc(/C(=C\c2coc3ccccc3c2=O)c2ccc([N+](=O)[O-])cc2)no1` showed an MIC of over 32 µg/mL.
On to `O=c1c(F)cnc2onc(-c3cccc(Cl)c3Cl)n12`, for which the MIC in the test with Staphylococcus aureus [4] was 101 µg/mL (≈ 336 µM); with Staphylococcus aureus [5], at least 125 µg/mL; in the test on Staphylococcus aureus [6] it was at least 125 µg/mL; in the test on Staphylococcus aureus [7], at least 125 µg/mL.
For `O=c1c(F)cnc2onc(-c3ccc(Cl)cc3)n12`, the MIC in the test with Staphylococcus aureus [4] was 111 µg/mL (≈ 416 µM); with Staphylococcus aureus [5], at least 125 µg/mL; with Staphylococcus aureus [6], at least 125 µg/mL; with Staphylococcus aureus [7], at least 125 µg/mL.
With `CCCCCCCCCCCCCCC(Br)c1nnc(-c2ccccc2Cl)o1` (stereo not drawn), in the test on Staphylococcus aureus [9], the “inhibition zone (IZ)” value worked out at 20.5 mm. The MIC with Staphylococcus aureus [10] turned out to be 12.5 µg/mL (≈ 26.6 µM).
The molecule `Cc1cc(C)c2occ(/C=C(/c3ccc([N+](=O)[O-])cc3)c3noc(C)n3)c(=O)c2c1` had an MIC against Staphylococcus aureus [8] of over 32 µg/mL.
As to `Cn1c(-c2nnc(/C=C/c3ccccc3)o2)cc(Br)c1Br`, in the test with Staphylococcus aureus [11], the MIC came out at 6.25 µg/mL (≈ 15.3 µM).
As to `CCCCCCCC/C=C/CCCCCCc1nnc(-c2ccco2)o1`, the “inhibition zone (IZ)” value in the test with Staphylococcus aureus [9] stood at 20.8 mm. For the same molecule, the MIC with Staphylococcus aureus [10] stood at 12.5 µg/mL (≈ 34.9 µM).
In the case of `Cc1nc(-c2ccc(C(C)(C)C)cc2)sc1-c1nnc(NN)o1`, in the test on Staphylococcus aureus [12], the MIC amounted to 6.25 µg/mL (≈ 19 µM).
The molecule `Cc1nc(/C(=C\c2coc3c(Cl)cc(Cl)cc3c2=O)c2ccc([N+](=O)[O-])cc2)no1` displayed an MIC with Staphylococcus aureus [8] of 32 µg/mL (≈ 72 µM).
Turning to `Cc1nc(-c2ccc(C(C)(C)C)cc2)sc1-c1nnc(NC(=N)N2CCOCC2)o1`, in the test on Staphylococcus aureus [12], the MIC was 25 µg/mL (≈ 58.6 µM).
As to `O=c1c(Br)cnc2onc(-c3ccccc3Cl)n12`, the MIC in the test with Staphylococcus aureus [4] came to 76.4 µg/mL (≈ 234 µM); with Staphylococcus aureus [5], 79.4 µg/mL (≈ 243 µM); in the test with Staphylococcus aureus [6], 84.4 µg/mL (≈ 258 µM); in the test with Staphylococcus aureus [7] it was 79.4 µg/mL (≈ 243 µM).
Take `COc1ccc(-c2nnc(-c3cc(Br)c(Br)n3C)o2)cc1`: in the test with Staphylococcus aureus [11], the MIC was 1.56 µg/mL (≈ 3.78 µM).
Consider `CCn1cc(C(=O)O)c(=O)c2cc(F)c(N3CCN(Cc4nnc(-c5ccccc5C)o4)CC3)cc21`, for which the MIC in the test on Staphylococcus aureus [1] stood at 2 µg/mL (≈ 4.07 µM); in the test with Staphylococcus aureus [2] it was 1 µg/mL (≈ 2.03 µM); with Staphylococcus aureus [3], 0.5 µg/mL (≈ 1.02 µM).
Take `CO/N=C(\C(=O)N[C@@H]1C(=O)N2C(C(=O)[O-])=C(C[N+]3(C)CCCC3)CS[C@H]12)c1csc(N)n1`: the MIC in the test with Staphylococcus aureus [4] is 36.5 µg/mL (≈ 76 µM); in the test on Staphylococcus aureus [5], 26.9 µg/mL (≈ 56 µM); in the test on Staphylococcus aureus [6], 20 µg/mL (≈ 41.6 µM); in the test with Staphylococcus aureus [7], 15.2 µg/mL (≈ 31.6 µM).
Take `CCn1cc(C(=O)O)c(=O)c2cc(F)c(N3CCN(Cc4nnc(-c5ccccc5Cl)o4)CC3)cc21`: the MIC in the test on Staphylococcus aureus [1] turned out to be 1 µg/mL (≈ 1.95 µM); in the test on Staphylococcus aureus [2] it was 0.5 µg/mL (≈ 0.977 µM); in the test with Staphylococcus aureus [3], 1 µg/mL (≈ 1.95 µM).
As to `CCCCCCCCCCCCCCc1nnc(-c2ccco2)o1`, the “inhibition zone (IZ)” value with Staphylococcus aureus [9] is recorded as 15.5 mm. In addition, in the test on Staphylococcus aureus [10], the MIC was determined as 12.5 µg/mL (≈ 37.6 µM).
As for `O=c1c(Br)cnc2onc(-c3ccccc3)n12`, the MIC in the test with Staphylococcus aureus [4] is 123 µg/mL (≈ 422 µM); in the test on Staphylococcus aureus [5], at least 125 µg/mL; with Staphylococcus aureus [6], at least 125 µg/mL; with Staphylococcus aureus [7], at least 125 µg/mL.
`Cc1nc(-c2ccc(C(C)(C)C)cc2)sc1-c1nnc(NC(=N)N2CCN(C)CC2)o1`: in the test with Staphylococcus aureus [12], the MIC is 25 µg/mL (≈ 56.9 µM).
For the molecule `Cn1c(-c2nnc(-c3ccncc3)o2)cc(Br)c1Br`, in the test with Staphylococcus aureus [11], the MIC worked out at 3.12 µg/mL (≈ 8.14 µM).
`O=c1c(Br)cnc2onc(-c3ccc(Br)cc3)n12`: the MIC in the test on Staphylococcus aureus [4] was 114 µg/mL (≈ 306 µM); in the test with Staphylococcus aureus [5], at least 125 µg/mL; in the test with Staphylococcus aureus [6], 120 µg/mL (≈ 325 µM); with Staphylococcus aureus [7], at least 125 µg/mL.
Consider `O=c1c(Br)cnc2onc(-c3ccc(Cl)cc3)n12`, for which the MIC with Staphylococcus aureus [4] was 96.4 µg/mL (≈ 295 µM); in the test on Staphylococcus aureus [5], 59.4 µg/mL (≈ 182 µM); in the test with Staphylococcus aureus [6] it was 96.3 µg/mL (≈ 295 µM); in the test on Staphylococcus aureus [7], 53.6 µg/mL (≈ 164 µM).
On to `Cn1c(-c2nnc(-c3ccc([N+](=O)[O-])cc3)o2)cc(Br)c1Br`, for which the MIC in the test on Staphylococcus aureus [11] stood at 3.12 µg/mL (≈ 7.3 µM).
Turning to `CCCCCCCCCCCCCCC(Br)c1nnc(-c2ccco2)o1` (stereo not drawn), the “inhibition zone (IZ)” value in the test on Staphylococcus aureus [9] is recorded as 21.6 mm. Further, the MIC in the test with Staphylococcus aureus [10] was 12.5 µg/mL (≈ 29.4 µM).
With `Cn1c(-c2nnc(-c3ccccc3)o2)cc(Br)c1Br`, in the test with Staphylococcus aureus [11], the MIC stood at 6.25 µg/mL (≈ 16.3 µM).
In the case of `Cn1c(-c2nnc(-c3cc(Br)c(Br)[nH]3)o2)cc(Br)c1Br`, the MIC with Staphylococcus aureus [11] came to 1.56 µg/mL (≈ 2.94 µM).
In the case of `O=c1c(Br)cnc2onc(-c3c(F)cccc3F)n12`, the MIC with Staphylococcus aureus [4] is 15.8 µg/mL (≈ 48.2 µM); in the test on Staphylococcus aureus [5], 40.2 µg/mL (≈ 123 µM); in the test on Staphylococcus aureus [6], 32.4 µg/mL (≈ 98.8 µM); in the test with Staphylococcus aureus [7], 40.2 µg/mL (≈ 123 µM).
Consider `Cc1nc(/C(=C\c2coc3ccc(Cl)cc3c2=O)c2ccc([N+](=O)[O-])cc2)no1`, for which the MIC against Staphylococcus aureus [8] is over 32 µg/mL.
The molecule `CC1(C)S[C@@H]2[C@H](NC(=O)[C@H](N)c3ccccc3)C(=O)N2[C@H]1C(=O)O` [AMPICILLIN] displayed an MIC with Staphylococcus aureus [8] of over 32 µg/mL.
For `Cn1c(-c2nnc(Cc3ccccc3)o2)cc(Br)c1Br`, the MIC in the test on Staphylococcus aureus [11] was determined as 6.25 µg/mL (≈ 15.7 µM).
